The values below come from patent publication US20100297109A1, “METHODS FOR INHIBITING FASCIN” (Cornell University, priority 2007, published 2010).

This assay deals with 4T1 cells. Description: Boyden chamber cell migration assay, serum-induced migration of 4T1 cells. The settings on record: FIGS. 1C and 1D. It is filed as cell-based, mouse. Here is the method: Cells. Mouse 4T1 mammary tumor cells and human MDA-MB-231 breast tumor cells were obtained from ATCC and have been described previously (Shan et al. 2005, Yang et al. 2005). 4T1 cells were cultured in RPMI 1640 medium supplemented with 10% FBS. MDA-MB-231 cells were cultured in DMEM supplemented with 10% FBS. Wound-healing assay. The wound-healing assay involves observing whether confluent cells can migrate across a scrape or wound in the cell layer. Cell migration assays were performed as described previously (Yang et al. 2005, Shan et al 2006). Tumor cells were plated in a 24-well plate coated with gelatin in standard media. […] Photographs several random regions of the filter facing the second chamber are taken and the number of cells counted to calculate the average number of cells that had transmigrated.
Boyden Chamber Cell Migration Assay. […] Three randomly selected fields (10× objectives) on the lower side of the insert were photographed, and the migrated cells were counted. The migration was expressed as either the average number of migrated cells in a field or as percentage of migrated cells in positive control. Percentage was calculated with the formula P=100×(M−Mnc)/Mpc, where P is the percentage of migrated cells, M is the number of migrated cells, Mnc is the number of migrated cells in negative controls, and Mpc is the number of migrated cells in positive controls.

For orientation: IC50 means the concentration needed to halve the response being measured. Higher therefore signals weaker potency.

The compound `COC1C=CCCCCC(=O)CCC(C)=CC(C)C1O` (stereo not shown) [macroketone, Migrastatin ketone] returned a 50% inhibitory concentration (IC50) of 100 nM.
